Data taken from paper PMC4838890, “Dynamic and flexible H3K9me3 bridging via HP1β dimerization establishes a plastic state of condensed chromatin” (Nature Communications, 2016).

Assays:
H3K9me0 oligonucleosomes = assay: Chromatin sedimentation (clustering), H3K9me0 oligonucleosomes; type: biochemical, Xenopus laevis; details: 150 mM NaCl, EtBr fluorescence, n=3
Description: Figure 3 hHP1β clusters oligonuclesomal arrays in dependence of H3K9me3. (a) Oligonucleosomes (2.5 nM) were incubated with increasing concentrations of hHP1β WT or I161A at 150 mM NaCl. DNA remaining in the supernatant after centrifugation was incubated with EtBr and measured by fluorescence reading. Data were normalized to amounts in absence of added protein. Averages of three independent experiments are plotted; error bars represent s.d.; n=3. (b) Analysis of the hydrodynamic radius of oligonucleosomes (10 nM; DNA labelled with ATTO 610) in the presence of increasing concentrations of hHP1β WT or I161A by FCS at 150 mM NaCl. For details on experimental setup see Supplementary Fig. 3. Error bars represent s.d.; n=3. (c) Oligonucleosomes were reconstituted after mixing H3K9me0 and H3K9me3 octamers at different ratio. Chromatin precipitation analysis at 150 mM NaCl was carried out with hHP1β WT at saturating concentration. Data are presented as in a. (d) Precipitation behaviour of oligonucleosomes (2.5 nM) was analysed at different concentrations of NaCl with hHP1β WT at saturating concentration. […] Precipitated material was analysed by western blotting. […] Complexes were fixed with 0.05% (v/v) glutaraldehyde, spotted on mica surfaces and analysed by scanning force microscopy. […] (h) Quantification of results representatively shown in g according to the classification on the top: A, extended; B, partially condensed; C, fully condensed; D; aggregates; n>50 for each condition.
For saturating conditions, 2.7 nM oligonucleosomes were incubated with 5 μM hHP1β proteins in 100 μl sedimentation buffer (10 mM triethanolamine (pH 7.5), 150 mM NaCl, 0.1 mM EDTA) for 1 h on ice. […] For quantification of chromatin DNA, the input and output samples were incubated with 40 μl 0.5 μg ml^−1 ethidium bromide and fluorescence was measured on a Plate CHAMELEON II fluorescence plate reader (Hidex, Turku, Finland) using a 360 nm (±5 nm) excitation filter and a 612 nm (±5 nm) emission filter. For each sample the ratio of DNA concentrations after and before centrifugation (output/input) was calculated. […]

mouse fibroblasts = assay: Subnuclear distribution of EGFP fusion proteins; type: cell-based; details: GFP fusions transiently expressed, n >100
From the text: Supplementary Figure 11: Subnuclear distribution of hHP1 β wild type and mutant proteins .
(a) The indicated proteins fused to EGFP were transiently expressed in mouse fibroblast cells.
Representative fluorescence confocal images are shown. DNA was stained with DAPI. Scale bar […]
(b) Quantification of the subnuclear distribution of the hHP1β WT and mutant proteins analyzed as in ( a) by visual inspection. EGFP signal in each transfected cell was categoriz ed into ‘dotted’ (see WT distribution in panel a) or ‘diffuse’ (see distribution of I161A in panel a). n >100 for each condition.
(1 picture or pasted object on this page, not shown here)

H3K9me3 oligonucleosomes = assay: Chromatin coprecipitation, H3K9me3 oligonucleosomes; type: binding, Xenopus laevis
Description: 6.7 nM oligonucleosomes were incubated with 1 μM recombinant protein in 100 μl binding buffer (10 mM triethanolamine (pH 7.5), 150 mM NaCl, 5 mM MgCl2, 0.1 mM EDTA, 0.1% (v/v) Triton-X100) for 1 h on ice. Precipitated chromatin complexes were recovered by centrifugation at 16,100g for 30 min at 4°C. Pellets were washed once with 0.5 ml binding buffer and centrifuged for 15 min at 4 °C. Precipitated material was resuspended in 10 μl 1 × SDS loading buffer and boiled for 5 min before running on SDS–PAGE.
Supplementary Table 1: Summary of conditions used in the different experiments of this study.
experiment result modification template Temp. [NaCl] [MgCl2]
chromatin Fig. 1e,f; Fig. S1f-h; H3K9me3 oligo- 4 150 5

Substance	chromatin clustering/aggregation, H3K9me0 (H3K9me0 oligonucleosomes)	subnuclear distribution (mouse fibroblasts)	recovery with H3K9me3 oligonucleosomes (H3K9me3 oligonucleosomes; 6.7 nM oligonucleosomes, 1 μM protein, 150 mM NaCl, 5 mM MgCl2, 1 h on ice)	competition with hHP1β WT for interaction with H3K9me3 oligonucleosomes (H3K9me3 oligonucleosomes; competitive coprecipitation, Supplementary Fig. 2b)	chromatin clustering/aggregation, H3K9me0 (H3K9me0 oligonucleosomes; listed as hHP1β)	specificity for H3K9me3 (H3K9me3 oligonucleosomes; chromatin coprecipitation, 5 mM MgCl2)	dependence of recovery on DNA sequence (H3K9me3 oligonucleosomes; chromatin on linearized pUC18 or 12 x 5S rDNA)
hHP1β I161A: CSD point mutant of hHP1β incapable of dimerization	neither the I161A mutant, nor the isolated CD or CSD had any effect on modified or unmodified chromatin	diffuse distribution	neither the monomeric CD alone nor an I161A mutant protein, which is incapable of dimerization[8], were significantly recovered with H3K9me3 oligonucleosomes	ineffective in competing with hHP1β WT	–	–	–
hHP1β WT: recombinant human heterochromatin protein 1β (GenBank NM_001127228), 185 aa	efficiently aggregated H3K9me3 but not H3K9me0 oligonucleosomes	largely localized to characteristic areas of pericentromeric heterochromatin enriched in H3K9me3	–	–	No clustering of H3K9me0 chromatin	coprecipitated only with H3K9me1/2/3 but not H3K9me0 oligonucleosomes	independent of the DNA sequence used for chromatin reconstitution
